Measured values from patent US8568994B2, “Method for prenatal diagnosis” (DKFZ Deutsches Krebsforschungszentrum, Stiftung des …, priority 2007, dated 2013).

Test system: Differentiated HPC cells
Experiment: Regulated exosomal secretion in human podocytes (Western blot of secreted vesicles for CD24, HSP70, Annexin-1)
Assay type: cell-based
Conditions: MCD 10 μg/ml or 10 mM for 2 hr
Method: Cultured HPC (differentiated) were treated with ionomycin (1 μM), MCD (10 mM) or cis-platin (15 μM) for 2 hr. Secreted membrane vesicles were harvested and cells were lysed in lysis buffer. Lysates and isolated vesicles were analyzed by SDS-PAGE followed by Western blot analysis with the indicated antibodies to CD24 and the exosomal marker proteins HSP70 and Annexin-1. Note the low level of constitutive vesicle secretion that is augmented by MCD.
Differentiated HPC cells were treated with ionomycin ([…]), MCD (10 μg/ml) or cisplatin (1 μg/ml) and analyzed the amount of exosomes released.
Human conditionally immortalized podocytes (HPC) were isolated and cultivated as previously described (31). Cells were grown in flasks either at the permissive temperature of 32° C. (in 5% CO2) to promote cell propagation as a cobblestone phenotype (undifferentiated) or at the nonpermissive temperature of 37° C. (in 5% CO2) to inactivate the SV40 T antigen and to allow the cells to differentiate. Prior to stimulation, cells were incubated for 16 h in RPMI 1640 medium, supplemented with 0.1 mg/ml of fatty acid-free bovine serum albumin. HK-2 human proximal tubular epithelial cells were obtained from American Type Culture Collection (ATCC, USA). Human mesangial cells (HMC) were kindly provided by Prof. Dr. Radeke (Depart. of Pharmacology, University of Frankfurt). […]

Q: With methyl-beta-cyclodextrin [MCD] as the substance, how does the “release of CD24 containing exosomes” value read?
A: significantly augmented the release of CD24 containing exosomes
